Measured values: article PMC4063723, “Mechanisms of Pyrethroid Resistance in the Dengue Mosquito Vector, Aedes aegypti: Target Site Insensitivity, Penetration, and Metabolism” (PLoS Neglected Tropical Diseases, 2014)
Changes are numbered by the printed parent chain.

Tests used:
Test in all cases: HPTLC autoradiography of metabolites, insect-cell microsomes
Assay type in all cases: biochemical
Details in all cases: NADPH, pH 7.5, 25 C, co-expressed reductase and b5; labelled compound; product 4'-HO-permethrin
[1] = molecular target: T1, CYP9M6v2 (Aedes aegypti, UniProt X5HYQ8)
T1 construct: full-length cDNA from SP strain (533 residues), baculovirus/Sf9 (expressSF+) microsomes, co-expressed with A. aegypti P450 reductase and cytochrome b5; with NADPH--cytochrome P450 reductase; Cytochrome b5
T1 sequence (X5HYQ8 1-533): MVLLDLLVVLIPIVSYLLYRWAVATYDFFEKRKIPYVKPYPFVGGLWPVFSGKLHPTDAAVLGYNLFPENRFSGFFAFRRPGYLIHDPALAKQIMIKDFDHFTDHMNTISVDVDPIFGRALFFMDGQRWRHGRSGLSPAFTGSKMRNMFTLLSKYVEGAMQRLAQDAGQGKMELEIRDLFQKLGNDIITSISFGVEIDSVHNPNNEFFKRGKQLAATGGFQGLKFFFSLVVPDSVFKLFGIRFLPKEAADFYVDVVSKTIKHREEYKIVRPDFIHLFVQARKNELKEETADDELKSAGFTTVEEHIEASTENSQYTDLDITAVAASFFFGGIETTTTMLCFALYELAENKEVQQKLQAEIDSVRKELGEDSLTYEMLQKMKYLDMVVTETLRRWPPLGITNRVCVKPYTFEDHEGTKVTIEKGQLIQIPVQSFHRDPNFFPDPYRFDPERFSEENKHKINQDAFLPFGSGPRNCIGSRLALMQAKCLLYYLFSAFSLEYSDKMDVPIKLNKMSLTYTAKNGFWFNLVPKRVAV

[2] = molecular target: T2, CYP6BB2 (Aedes aegypti, UniProt Q16F58)
T2 construct: gene 5565578; full-length cDNA from SP strain, baculovirus/Sf9 (expressSF+) microsomes, co-expressed with A. aegypti P450 reductase and cytochrome b5; with NADPH--cytochrome P450 reductase; Cytochrome b5
T2 sequence (Q16F58 1-507): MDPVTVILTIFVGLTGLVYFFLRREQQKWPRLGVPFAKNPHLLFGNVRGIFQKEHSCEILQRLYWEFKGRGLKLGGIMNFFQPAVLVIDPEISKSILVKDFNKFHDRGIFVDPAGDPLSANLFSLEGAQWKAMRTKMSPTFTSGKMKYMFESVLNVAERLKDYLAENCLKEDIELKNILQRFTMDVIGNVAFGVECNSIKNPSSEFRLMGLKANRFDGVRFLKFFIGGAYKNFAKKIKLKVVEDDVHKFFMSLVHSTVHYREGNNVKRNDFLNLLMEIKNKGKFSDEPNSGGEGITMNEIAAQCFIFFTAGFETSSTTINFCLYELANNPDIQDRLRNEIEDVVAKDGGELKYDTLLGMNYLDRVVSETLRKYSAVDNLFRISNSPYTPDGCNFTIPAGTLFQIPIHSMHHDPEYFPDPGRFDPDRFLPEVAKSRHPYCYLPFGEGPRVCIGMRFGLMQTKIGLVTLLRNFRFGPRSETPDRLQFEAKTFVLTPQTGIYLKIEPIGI

[3] = molecular target: T3, CYP9M6v1 (Aedes aegypti, UniProt X5I1U9)
T3 construct: full-length cDNA from SP strain (533 residues), baculovirus/Sf9 (expressSF+) microsomes, co-expressed with A. aegypti P450 reductase and cytochrome b5; with NADPH--cytochrome P450 reductase; Cytochrome b5
T3 sequence (X5I1U9 1-533): T1 sequence (X5HYQ8 1-533) with G170R, I176V, E348G, D370G, M376V, V527L, R530K

Structure (SMILES): CC1(C)C(C=C(Cl)Cl)C1C(=O)OCc1cccc(Oc2ccccc2)c1 (stereo not drawn) [[14C]-(1RS)-trans-permethrin]
- HPTLC autoradiography of metabolites, insect-cell microsomes [1]: Both CYP9M6v1 and CYP9M6v2 demonstrated relatively low but consistent permethrin metabolism
- HPTLC autoradiography of metabolites, insect-cell microsomes [2]: CYP6BB2 exhibited strong metabolic activity for permethrin
- HPTLC autoradiography of metabolites, insect-cell microsomes [3]: Both CYP9M6v1 and CYP9M6v2 demonstrated relatively low but consistent permethrin metabolism
